Read-outs that look alike come from different tables or passages of the source.
Assays:
HT-29 cells [1] = experiment: MTT reduction assay; assay type: cell-based, human; settings: for Selectivity index: HT-29 versus non-cancerous KMST-6
Procedure: (§3) Viable cells were seeded at a density of 5 x10^4 cells/ml (100 μl/well) in 96-well plates and incubated in a humidified atmosphere of 5% CO2 and 95% air at 37°C for 24 h to form a cell monolayer. After 24 h, the cell culture medium was aspirated and 100 μl fresh medium containing varying concentrations of test compounds in log10 doses were added to the cells and the 96-well plates incubated for a further 24 h [16, 17].
(§4) After the 24 h treatments, 20 μl of 5 mg/ml MTT (prepared in PBS) was added to each well and the 96-well plates incubated for 3 h at 37°C in a 5% CO2 atmosphere. The supernatant was aspirated and 150 μl of isopropanol added to each well after which the plate was gently shaken for 15 min to solubilize the formazan crystals and the absorbance was measured at 560 nm using a Glomax Multi Detection System (Promega, USA). The percentage inhibition of cell proliferation was calculated using the formula below and IC50 values computed by non-linear regression analysis of log dose-response sigmoidal curves using GraphPad Prism version 6.05 for Windows (GraphPad Software, La Jolla California USA, www.graphpad.com). %Inhibition of Proliferation=100‐TestOD/UntreatedODx100%

HeLa cells [2] = experiment: MTT reduction assay; assay type: cell-based, human; settings: for Selectivity index: HeLa versus non-cancerous KMST-6; for IC50: HeLa
Procedure: as §3, §4

MCF-7 cells [3] = experiment: MTT reduction assay; assay type: cell-based, human; settings: for Selectivity index: MCF-7 versus non-cancerous KMST-6
Procedure: as §3, §4

[4] = system: KMST-6 non-cancerous fibroblast cells; experiment: MTT reduction assay; assay type: cell-based, human
Procedure: as §3, §4

HT-29 cells [5] = experiment: Cell cycle analysis, PI flow cytometry; assay type: cell-based, human; settings: HT-29, IC50 concentration, 12 and 24 h
Procedure: (§1) Cells were seeded at a density of 2 × 10^5 cells/well in 6-well plates and incubated for 24 h at 37 °C in a CO2 incubator to form a monolayer. The cells were treated for 12 and 24 h with the isolated compounds at concentrations equivalent to the IC50 concentrations (as determined by the MTT reduction assay). After treatment, the cells were detached with trypsin, washed in PBS and the cell pellet was resuspended in 1 ml of 1% paraformaldehyde and placed on ice for 30 min. Ethanol (70%, v/v) was slowly added to the cells while the sample was vortexed to reduce cell clumping. The cells were stored at − 20 °C for 48 h, after which the cells were recovered by centrifugation at 4000 rpm for 10 min. The cell pellets were washed twice in PBS and then resuspended in 1 ml PBS containing 100 μg/ml RNase and 40 μg/ml propidium iodide. Cell cycle phase distribution was determined using a FACS Calibur Flow Cytometer (BD Biosciences Franklin Lakes, NJ, USA). The DNA content of 50,000 events was determined by ModFit software (Verity Software House, Topsham, ME), which provided histograms to evaluate the cell cycle distribution.

HeLa cells [6] = experiment: Cell cycle analysis, PI flow cytometry; assay type: cell-based, human; settings: IC50 concentration, 24 h
Procedure: as §1

MCF-7 cells [7] = experiment: Cell cycle analysis, PI flow cytometry; assay type: cell-based, human; settings: MCF-7, IC50 concentration
Procedure: as §1

HT-29 cells [8] = experiment: BrdU incorporation assay (chemiluminescent ELISA); assay type: cell-based, human; settings: HT-29, IC50 concentration
Procedure: (§2) Cells were seeded at a density of 5 × 10^4 cells/well in black-walled 96-well microtiter plates and incubated for 24 h at 37 °C in a CO2 incubator to form a monolayer. The cells were treated for 12, 24 and 48 h with the isolated compounds at concentrations equivalent to the IC50 concentrations (as determined by the MTT reduction assay). Cell proliferation was determined using the ELISA-BrdU (5-bromo-2′-deoxyuridine) chemiluminescence assay kit (Roche, Germany), according to the manufacturer’s instruction, and expressed as the percentage DNA synthesis relative to the untreated control.

HeLa cells [9] = experiment: BrdU incorporation assay (chemiluminescent ELISA); assay type: cell-based, human; settings: IC50 concentration
Procedure: as §2

MCF-7 cells [10] = experiment: BrdU incorporation assay (chemiluminescent ELISA); assay type: cell-based, human; settings: MCF-7, IC50 concentration
Procedure: as §2

[11] = design: method as in doi:10.1135/cccc20041506; settings: at a neuro-active concentration; cited from earlier work
[12] = Homo sapiens, HT-29, MTT, 24 h treatment, read-out: IC50
[13] = Homo sapiens, MTT, 24 h treatment, read-out: IC50
[14] = Homo sapiens, MCF7, MCF-7, MTT, 24 h treatment, read-out: IC50
[15] = Homo sapiens, Fibroblast, KMST-6, MTT, 24 h treatment, read-out: IC50

Structure (SMILES) | Selectivity index (HT-29 cells [1]) | Selectivity index (HeLa cells [2]) | Selectivity index (MCF-7 cells [3]) | IC50 (HT-29 cells [1]; [12]) [µM] | IC50 (HeLa cells [2]; [13]) [µM] | IC50 (MCF-7 cells [3]; [14]) [µM] | IC50 [4, 15] [µM] | Cell population in G2/M phase (HT-29 cells [5]) | Cell population in G2/M-phase (MCF-7 cells [7]; 12 h) | Cell population in G2/M-phase (MCF-7 cells [7]; 24 h) | Change in DNA synthesis between 12 and 24 h (HT-29 cells [8]) | further results
N.N.[Cl][Pt][Cl] [Cisplatin] | 0.87 | 2.11 | 0.58 |  |  |  |  |  |  |  |  | IC50 (HT-29 cells [1]; HT-29, MTT, 24 h treatment, read-out: IC50): 7.07 µM; IC50 (HeLa cells [2]; MTT, 24 h treatment, read-out: IC50): 2.91 µM; IC50 (MCF-7 cells [3]; MCF-7, MTT, 24 h treatment, read-out: IC50): 10.6 µM; IC50 ([4]; KMST-6, MTT, 24 h treatment, read-out: IC50): 6.14 µM
CC(=O)[C@H]1CC[C@H]2[C@@H]3CC=C4C[C@H](N)CC[C@]4(C)[C@H]3CC[C@]12C [Compound 1, holamine] | 3.82 | 2.00 |  | 31.1 | 51.4 | 42.8 | 103 | significant increase | significant increase | not significant | significant reduction | Selectivity index (HT-29 cells [1]; listed as C1): 3.31; Cell population in G2/M-phase (HeLa cells [6]): significant decrease; Change in DNA synthesis between 24 and 48 h (HeLa cells [9]): significant reduction; Change in DNA synthesis between 12 and 24 h (MCF-7 cells [10]): significant reduction
CC(=O)[C@H]1CC[C@H]2[C@@H]3CC[C@H]4C[C@H](N)CC[C@]4(C)[C@H]3CC[C@]12C [Compound 2, funtumine] | 3.31 |  | 1.85 |  |  |  |  | significant increase | significant increase | significant increase | significant reduction | Selectivity index (HT-29 cells [1]; listed as C2): 3.82; IC50 (HT-29 cells [1]; Homo sapiens, HT-29, 24 h): 22.4 µM; IC50 (HeLa cells [2]; Homo sapiens, 24 h): 46.2 µM; IC50 (MCF-7 cells [3]; Homo sapiens, MCF7, 24 h): 52.7 µM; IC50 ([4]; Homo sapiens, Fibroblast, 24 h): 85.5 µM; Change in DNA synthesis between 24 and 48 h (HT-29 cells [8]): significant reduction; Change in DNA synthesis between 12 and 24 h (HeLa cells [9]): significant reductions; Change in DNA synthesis between 24 and 48 h (MCF-7 cells [10]): significantly (P < 0.05) reduced; Cytotoxicity [11]: no cytotoxicity
COc1cccc2c1C(=O)c1c(O)c3c(c(O)c1C2=O)C[C@@](O)(C(=O)CO)C[C@@H]3O[C@H]1C[C@H](N)[C@H](O)[C@H](C)O1 [Dox, Doxorubicin] | 0.27 | 1.31 | 0.57 | 17.4 | 3.57 | 8.2 | 4.68 |  |  |  |  | 
